Measurements as given in patent publication US20080269298A1, “Benzimidazol-1-YL-thiophene compounds for the treatment of cancer” (priority 2002, published 2008).
pIC50: −log10 of the molar value.

Assays:
[1] = system: lung (H460) tumor cell line; experiment: Methylene Blue Growth Inhibition Assay, H460; type: cell-based; conditions: Homo sapiens, NCI-H460, 72 h; Cell Line H460, 3 days; read-out: MeB IC50
In short: (§1)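 Growth inhibition is measured as methylene blue-stained biomass (OD 620 nm) after 3 days of compound treatment, relative to vehicle controls. Cells grow in high-glucose DMEM with 10% FBS and 0.3% final DMSO; IC50 comes from nonlinear regression.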

[2] = system: colon (HCT116) tumor cell line; experiment: Methylene Blue Growth Inhibition Assay, HCT116; type: cell-based; conditions: Homo sapiens, HCT-116, 72 h; Cell Line HCT116, 3 days; read-out: MeB IC50
In short: as §1

[3] = system: prostate (PC3) tumor cell line; experiment: Methylene Blue Growth Inhibition Assay, PC3; type: cell-based; conditions: Homo sapiens, 72 h; Cell Line PC3, 3 days; read-out: MeB IC50
In short: as §1

[4] = system: Normal Human foreskin fibroblasts (HFF); experiment: Methylene Blue Growth Inhibition Assay, HFF; type: cell-based; conditions: 72 h, Cell Line HFF, 3 days, read-out: MeB IC50
In short: as §1

[5] = system: breast tumor (MCF7) cell line; experiment: Methylene Blue Growth Inhibition Assay, MCF7; type: cell-based; conditions: Homo sapiens, 72 h; Cell Line MCF7, 3 days; read-out: MeB IC50
In short: as §1

[6] = system: colon (RKO) tumor cell line; experiment: Methylene Blue Growth Inhibition Assay, RKO; type: cell-based; conditions: Homo sapiens, 72 h, 3 days, read-out: MeB IC50
In short: as §1

[7] = biological target: T1, PLK1 kinase domain (Homo sapiens, UniProt P53350); experiment: Assay for Inhibition of PLK1 (SPA enzyme activity); type: biochemical; conditions: 2 μM ATP, read-out: Ave pIC50 PLK Enzyme Inhibition (converted)
T1 construct: made in house; host or cells: baculovirus-infected T. ni insect cells
T1 sequence (P53350 21-346): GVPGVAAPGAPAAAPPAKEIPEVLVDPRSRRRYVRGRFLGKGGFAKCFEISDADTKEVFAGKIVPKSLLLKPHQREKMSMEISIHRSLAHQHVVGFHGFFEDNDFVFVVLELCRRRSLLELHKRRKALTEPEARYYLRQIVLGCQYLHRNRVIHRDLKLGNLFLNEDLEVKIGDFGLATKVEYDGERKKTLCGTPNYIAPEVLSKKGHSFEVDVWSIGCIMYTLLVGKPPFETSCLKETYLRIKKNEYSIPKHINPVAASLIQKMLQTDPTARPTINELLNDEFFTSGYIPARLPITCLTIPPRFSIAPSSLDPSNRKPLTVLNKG

Compound	pIC50 [1]	pIC50 [2]	pIC50 [3]	pIC50 [5]	pIC50 [6]	IC50 [7] [µM]	pIC50 [4]
COc1cc2ncn(-c3cc(OCCN4CCOCC4)c(C(N)=O)s3)c2cc1OC [Example 113, 5-(5,6-Dimethoxy-1H-benzimidazol-1-yl)-3-(2-morpholin-4-ylethoxy)thiophene-2-carboxamide]	< 5.00	< 5.00	< 5.00	< 5.00	< 5.00	0.1 to 10	< 5.00
COC(=O)c1sc(-n2cnc3cc(OC)c(OC)cc32)cc1OS(=O)(=O)C(F)(F)F [Example 150, Methyl 5-(5,6-dimethoxy-1H-benzimidazol-1-yl)-3-{[(trifluoromethyl)sulfonyl]oxy}thiophene-2-carboxylate]	< 5.00	< 5.00	< 5.00	< 5.00	< 5.00	0.1 to 10	< 5.00
COc1cc2ncn(-c3cc(OCc4ccccc4S(C)(=O)=O)c(C(N)=O)s3)c2cc1OC [Example 99, 5-(5,6-Dimethoxy-1H-benzimidazol-1-yl)-3-{[2-(methylsulfonyl)benzyl]oxy}thiophene-2-carboxamide]	5.00 to 6.00	5.00 to 6.00	< 5.00	5.00 to 6.00	5.00 to 6.00	< 0.1	< 5.00
O=C(O)c1sc(-n2cnc3ccc(Cl)cc32)cc1OCc1ccc(F)cc1F [Example 71, 5-(6-Chloro-1H-benzimidazol-1-yl)-3-[(2,4-difluorobenzyl)oxy]-thiophene-2-carboxylic acid]	< 5.00	< 5.00	< 5.00	< 5.00	< 5.00	< 0.1	< 5.00
Cc1ccccc1COc1cc(-n2cnc3ccc(Cl)cc32)sc1C(N)=O [Example 61]	5.00 to 6.00	5.00 to 6.00	< 5.00	5.00 to 6.00	5.00 to 6.00	< 0.1	< 5.00
NC(=O)c1sc(-n2cnc3cc4c(cc32)OC(F)(F)O4)cc1OCc1ccccc1C(F)(F)F [Example 88, 5-(2,2-Difluoro-5H-[1,3]dioxolo[4,5-f]benzimidazol-5-yl)-3-{[2-(trifluoromethyl)benzyl]oxy}thiophene-2-carboxamide]	< 5.00	< 5.00	< 5.00	5.00 to 6.00	< 5.00	0.1 to 10	< 5.00
NC(=O)c1sc(-n2cnc3ccc(OCCN4CCCC4)cc32)cc1OCc1ccccc1C(F)(F)F [Example 139, 5-[6-(2-Pyrrolidin-1-ylethoxy)-1H-benzimidazol-1-yl]-3-{[2-(trifluoromethyl)benzyl]oxy}thiophene-2-carboxamide]	5.00 to 6.00	5.00 to 6.00	5.00 to 6.00	5.00 to 6.00	> 6.00	< 0.1	< 5.00
COc1cc2ncn(-c3cc(OCC4CCCCO4)c(C(N)=O)s3)c2cc1OC (centres unmarked) [Example 112, 5-(5,6-Dimethoxy-1H-benzimidazol-1-yl)-3-(tetrahydro-2H-pyran-2-ylmethoxy)thiophene-2-carboxamide]	5.00 to 6.00	< 5.00	< 5.00	< 5.00	5.00 to 6.00	0.1 to 10	< 5.00
COc1cc2ncn(-c3cc(OCc4ccccc4[S+](C)[O-])c(C(N)=O)s3)c2cc1OC (centres unmarked) [Example 98, 5-(5,6-Dimethoxy-1H-benzimidazol-1-yl)-3-{[2-(methylsulfinyl)benzyl]oxy}thiophene-2-carboxamide]	5.00 to 6.00	5.00 to 6.00	5.00 to 6.00	5.00 to 6.00	5.00 to 6.00	0.1 to 10	< 5.00

Continued, in another order:

pIC50 [1]	pIC50 [2]	pIC50 [3]	pIC50 [5]	pIC50 [6]	IC50 [7] [µM]	Compound	pIC50 [4]
< 5.00	< 5.00	< 5.00	< 5.00	< 5.00	0.1 to 10	COc1cc2ncn(-c3cc(OCc4ccccc4-c4ccccc4)c(C(N)=O)s3)c2cc1OC [Example 93, 3-(1,1′-Biphenyl-2-ylmethoxy)-5-(5,6-dimethoxy-1H-benzimidazol-1-yl)thiophene-2-carboxamide]	< 5.00
5.00 to 6.00	5.00 to 6.00	5.00 to 6.00	5.00 to 6.00	5.00 to 6.00	< 0.1	COc1cc2ncn(-c3cc(OCc4cccc(I)c4)c(C(N)=O)s3)c2cc1OC [Example 94]	5.00 to 6.00
< 5.00	< 5.00	< 5.00	< 5.00	< 5.00	0.1 to 10	CC(=O)c1sc(-n2cnc3ccc(Cl)cc32)cc1OCc1ccccc1C [Example 39, 1-{5-(6-Chloro-1H-benzimidazol-1-yl)-3-[(2-methylbenzyl)oxy]thien-2-yl}ethanone]	< 5.00
< 5.00	< 5.00	< 5.00	< 5.00	< 5.00	< 0.1	NC(=O)c1sc(-n2cnc3ccccc32)cc1NS(=O)(=O)c1ccccc1 [Example 132, 5-(1H-Benzimidazol-1-yl)-3-[(phenylsulfonyl)amino]thiophene-2-carboxamide]	< 5.00
5.00 to 6.00	5.00 to 6.00	< 5.00	< 5.00	< 5.00	< 0.1	COC(=O)c1sc(-n2cnc3cc(OC)c(OC)cc32)cc1OS(=O)(=O)c1ccccc1[N+](=O)[O-] [Example 149]	< 5.00
< 5.00	5.00 to 6.00	< 5.00	< 5.00	5.00 to 6.00	0.1 to 10	NC(=O)c1sc(-n2cnc3ccccc32)cc1NCc1ccccc1C(F)(F)F [Example 133, 5-(1H-Benzimidazol-1-yl)-3-{[2-(trifluoromethyl)benzyl]amino}-thiophene-2-carboxamide]	< 5.00
5.00 to 6.00	< 5.00	< 5.00	5.00 to 6.00	5.00 to 6.00	0.1 to 10	COc1ccc(COc2cc(-n3cnc4cc(OC)c(OC)cc43)sc2C(N)=O)cc1 [Example 128, 5-(5,6-Dimethoxy-1H-benzimidazol-1-yl)-3-[(4-methoxybenzyl)oxy]thiophene-2-carboxamide]	< 5.00
> 6.00	> 6.00	5.00 to 6.00	> 6.00	> 6.00	< 0.1	COc1cc2ncn(-c3cc(OCc4ccccc4C(F)(F)F)c(C(N)=O)s3)c2cc1OCCCN(C)C [Example 135, 5-[6-{[3-(Dimethylamino)propyl]oxy}-5-(methyloxy)-1H-benzimidazol-1-yl]-3-({[2-(trifluoromethyl)phenyl]methyl}oxy)-2-thiophenecarboxamide]	5.00 to 6.00
> 6.00	> 6.00	> 6.00	> 6.00	> 6.00	< 0.1	CC(Oc1cc(-n2cnc3cc(N)ccc32)sc1C(N)=O)c1ccccc1Cl (centres unmarked) [Example 157, 5-(5-Amino-1H-benzimidazol-1-yl)-3-[1-(2-chlorophenyl)ethoxy]thiophene-2-carboxamide]	< 5.00
5.00 to 6.00	5.00 to 6.00	< 5.00	5.00 to 6.00	5.00 to 6.00	< 0.1	NC(=O)c1sc(-n2cnc3cc4c(cc32)OCCO4)cc1OCc1ccccc1C(F)(F)F [Example 123, 5-(6,7-Dihydro-1H-[1,4]dioxino[2,3f]benzimidazol-1-yl)-3-{[2-(trifluoromethyl)benzyl]-oxy}thiophene-2-carboxamide]	5.00 to 6.00
< 5.00	< 5.00	< 5.00	< 5.00	< 5.00	< 0.1	COc1cc2ncn(-c3cc(OCc4ccccc4C(F)(F)F)c(C(N)=S)s3)c2cc1OC [Example 145]	< 5.00
< 5.00	< 5.00	< 5.00	< 5.00	< 5.00	0.1 to 10	COc1cc2ncn(-c3cc(OCc4ccccc4C(O)CO)c(C(N)=O)s3)c2cc1OC (centres unmarked) [Example 109]	< 5.00
< 5.00	< 5.00	< 5.00	< 5.00	< 5.00	< 0.1	COc1cc2ncn(-c3cc(OCc4ccccc4Br)c(C(=O)O)s3)c2cc1OC [Example 76, 3-[(2-Bromobenzyl)oxy]-5-(5,6-dimethoxy-1H-benzimidazol-1-yl)thiophene-2-carboxylic acid]	< 5.00
5.00 to 6.00	5.00 to 6.00	< 5.00	5.00 to 6.00	5.00 to 6.00	< 0.1	NC(=O)c1sc(-n2cnc3ccc(OCC(F)(F)F)cc32)cc1OCc1ccccc1C(F)(F)F [Example 87, 5-[6-(2,2,2-Trifluoroethoxy)-1H-benzimidazol-1-yl]-3-{[2-(trifluoromethyl)benzyl]oxy}thiophene-2-carboxamide]	< 5.00
